Assay results reported in US7759399B2, “Pharmaceutical compositions” (priority 2002, dated 2010).
Where two headings read alike, the source gives them in different places.

Tests used:
[1] = system: uninfected 37RC cells; details: monkey
[2] = system: Sendai virus; experiment: Sendai virus replication in 37RC cells (virus yield by HAU titration); format: cell-based; details: Respirovirus muris, 5 HAU/10^5 cells, virus yield at 24 hours after infection, read-out: ID50 (50% inhibitory dose/concentration), Sendai virus yield
[3] = system: HSF1; details: concentration of 125-500 μM; cited from earlier work
[4] = system: NF-κB; details: same concentration (125-500 μM); cited from earlier work
[5] = doses from 30 μg/kg/min; cited from earlier work
[6] = system: NF-κB; experiment: Luciferase activity of G418-resistant HeLa cell pool transfected with NF-κB-LUC after stimulation; format: cell-based; details: NF-κB-LUC (STM vector), quadruplicate samples, control 1369±149
Excerpt: (§1) The fragment Kpn I-BamH I from the pGL3 basic vector containing the luciferase gene (PROMEGA) was inserted in the pcDNA3 vector (INVITROGEN) digested with Bgl II-KpnI. (This digestion removes the CMV-promoter from pcDNA3.) The resulting new vector was digested with Kpn I-Hind III and a promoter containing a ‘5xNF-κB binding sites—TATA box’ sequence was inserted upstream of the luciferase gene. This vector has been named STM.
(§2) To obtain stable HeLa cell lines expressing the luciferase gene under the control of NF-κB, HeLa cells were transfected (using lipofectamine plus GIBCO) with the STM-Pvu I linearized vector, and selected for 20 days with G418 (800 μg/ml). After selection, the resistant HeLa cell pool was controlled (in quadruplicate samples) for luciferase activity after stimulation with TNFα, IL-1 and TPA.

[7] = system: 37RC cells; experiment: in vitro; format: cell-based; details: 24 h treatment, read-out: LC50 (50% lethal dose/concentration), Neutral Red
Method: Cell viability was determined using the Neutral Red assay. 37RC cells were seeded at density of 6×10^4 cells/well in 24-well plates and incubated for 24 h. Confluent 37RC monolayers were treated with the test compounds at different dilutions for 24 h at 37° C. After incubation, the medium was removed and the cells were incubated with RPMI medium containing 40 μg/ml Neutral Red dye (500 μl/well). After 2 h at 37° C., the monolayers were washed with phosphate-buffered saline (PBS) and then with a solution containing 1% CaCl2 and 0.5% formaldehyde. After washing, a solution containing 1% acetic acid/50% ethanol was added to the monolayers (250 μl/well). After 10 min at room temperature, the absorbance was determined with a microplate reader (Victor 1420, Wallac) at 540 nm.

[8] = system: NF-κB; experiment: NF-κB-dependent luciferase reporter gene assay, HeLa κB-transformed cells, TPA stimulated; format: cell-based; details: 8 h treatment, TPA 25 ng/ml 2 h after exposure, read-out: NF-κB, IC50 (concentration at which the compound halved the NF-κB activity)
Method: Method: HeLa cell clone 13B, stably transfected with a luciferase reporter plasmid controlled by the human hsp70 promoter, and HeLa κB-transformed cells, stably transfected with a luciferase reporter plasmid controlled by a synthetic NF-κB-STM construct, were maintained in DMEM medium supplemented with 10% FBS, L-glutamine (2 mM) and G418 (250 μg/ml) at 37° C. in a 5% CO2 humidified atmosphere.
Cells were seeded at a density of 4×10^4 cells/well in 96-well plates. After 18-20 h, the medium was removed and cells were treated for 8 h with the test compounds (100 μl) at the appropriate dilutions in serum-free medium. For the NF-κB-dependent reporter gene assay, cells were stimulated with TPA (25 ng/ml) 2 h after exposure to the compounds.
After incubation, the medium was removed and cells were lysed in 10 μl of lysis buffer. The luciferase activity was determined by adding 100 μl of substrate and measuring the release of light using a Victor 1420 microplate reader (Wallac, Finland).
as §1, §2
The AC200/μM for HSF is the concentration at which the tested compound doubled the HSF activity in this assay. The IC50/μM for NF-κB is the concentration at which the tested compound halved the NF-κB activity in this assay.

[9] = system: NF-κB; experiment: EMSA of NF-κB DNA-binding activity in TPA-stimulated Jurkat T cells; format: cell-based, Human; details: Jurkat T cells treated 1 hour, then TPA 25 ng/ml, extracts after 3 hours; FIGS. 1(b)-6(b)
Method: Methods: Human lymphoblastoid Jurkat T cells were grown at 37° C. in a 5% CO2 atmosphere in RPM1 1640 medium (GIBCO BRL, Gaithersburg, Md.) supplemented with 10% fetal calf serum (FCS, Hyclone Europe Ltd, UK) 2 mM glutamine and antibiotics according to the method described by A. Rossi et al. (Proc. Natl. Acad. Sci. USA 94: 746-750, 1997). The test compounds were stored as a 100% ethanolic stock solution (100 mM) or in DMSO (100 mM) and diluted to the appropriate concentration in culture medium at the time of use. Cells were treated with different concentrations of test compound for 1 hour and then stimulated with 12-O-tetradecanoylphorbol-13-acetate (TPA, 25 ng/ml), which is a strong inducer of NF-κB. Control cells received an equal amount of control diluent. After 3 hours whole-cell extracts were prepared and subjected to analysis of DNA-binding activity by EMSA (Electrophoretic Mobility Shift Assay) for detection of HSF or NF-κB activation, according to the method described by A. Rossi et al. (Proc. Natl. Acad. Sci. USA 94: 746-750, 1997).
Specificity of protein-DNA complexes was verified by immunoreactivity with polyclonal antibodies specific for p65 (Rel A) or for HSF-1, for NF-κB and HSF respectively. Quantitative evaluation of NF-κB and HSF-DNA complex formation was determined by Molecular Dynamics Phosphorimager (MDP) analysis and was expressed in arbitrary units, as described in A. Rossi et al. (J. Biol. Chem. 273: 16446-16452, 1998). The results from representative experiments are shown in FIGS. 1(b), 2(b), 3(b), 4(b), 5 and 6(b) for compounds CTM-50, CTM-49, CTM-36, CTM-30, CTC-130 and CTC-109, as identified above.

Molecule: O=C1C=CCC1 [CTC-1, cyclopent-2-en-1-one, reference compound]
- TD100 (dose or concentration at which the compound was 100% toxic to uninfected cells) [1]: >500 µM
- IC50 [2]: 90 µM
- HSF1 activation, result in words [3]: able to activate HSF1
- block of NF-κB activation by chemical or physiological inducers, result in words [4]: able to block NF-κB activation

Molecule: CCCCC[C@H](O)/C=C/[C@H]1[C@H](O)CC(=O)[C@@H]1CCCCCCC(=O)O [Prostaglandin E1]
- effect on blood pressure [5]: dose-dependant falls in blood pressure

Molecule: TNFα
- luciferase activity [6]: 6111±1231

Molecule: CC(C)(C)C(=O)O[C@H]1[C@H](Sc2ccc3ccccc3c2)CC(=O)C1(C)C (stereo in doubt) [CTM-192, 2,2-dimethylpropionic acid (1R,5R)-2,2-dimethyl-5-(naphthalen-2-ylsulfanyl)-3-oxocyclopentyl ester]
- CC50 [7]: 22 µM
- TD100 (dose or concentration at which the compound was 100% toxic to uninfected cells) [1]: 50 µM
- IC50 [8]: 28 µM

Molecule: CCCCCCCCCCCCCC(=O)O[C@@H]1[C@@H](C)[C@@]2(O)[C@@H](C=C(CO)C[C@]3(O)C(=O)C(C)=C[C@@H]23)[C@@H]2C(C)(C)[C@]12OC(C)=O [TPA, 12-O-tetradecanoylphorbol-13-acetate]
- luciferase activity [6]: 7181±444

Molecule: CCCCC[C@H](O)/C=C/[C@H]1C=CC(=O)[C@@H]1CCCCCCC(=O)O [Prostaglandin A1]
- effect on blood pressure [5]: dose-dependant falls in blood pressure

Molecule: COC(=O)[C@H](CSC1C=CC(=O)C1)NC(=O)OC(C)(C)C (some centres unmarked) [CTC-109]
- TD100 (dose or concentration at which the compound was 100% toxic to uninfected cells) [1]: 500 µM
- IC50 ([2]; 24 h): 3 µM
- NF-κB-DNA complex formation (EMSA), result in words [9]: inhibitors of NF-κB

Molecule: COC(=O)[C@H](CSC1=CC(=O)CC1)NC(=O)OC(C)(C)C [CTM-50]
- TD100 (dose or concentration at which the compound was 100% toxic to uninfected cells) [1]: >500 µM
- IC50 ([2]; 24 h): 10 µM
- NF-κB-DNA complex formation (EMSA), result in words [9]: inhibitors of NF-κB
